According to the supplement of paper PMC10307832:

Key:
Assay in all cases: relative viability (nuclei count vs DMSO), 5 days (fraction); higher = more cells survive
[1] = compound: C1=CC2=C(C=C(C(=C2N=C1)O)N=NC3=CC4=C(C=C3)C=C(C=C4)S(=O)(=O)O)S(=O)(=O)O + CCNC(=O)c1noc(-c2cc(C(C)C)c(O)cc2O)c1-c1ccc(CN2CCOCC2)cc1 [Luminespib] (partner 0.01 µM)
Summary of the method: (§1)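 One day after seeding in 1536-well plates, lung cancer cell lines were dosed by pin tool. Dosing was either single-drug or a fixed anchor-drug dose plus five library-drug doses (not always all listed) in √10 steps. After 5 days, nuclei were stained in one fix-and-stain step and counted on 4× images, and relative viability is the nuclei count of treated wells over that of vehicle wells, given as the median of duplicate plates.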

[2] = compound: C1=CC2=C(C=C(C(=C2N=C1)O)N=NC3=CC4=C(C=C3)C=C(C=C4)S(=O)(=O)O)S(=O)(=O)O + C[C@@H](Oc1cc(-c2cnn(C3CCNCC3)c2)cnc1N)c1c(Cl)ccc(F)c1Cl [Crizotinib] (partner 1 µM)
Summary of the method: as §1

[3] = compound: C1=CC2=C(C=C(C(=C2N=C1)O)N=NC3=CC4=C(C=C3)C=C(C=C4)S(=O)(=O)O)S(=O)(=O)O + Nc1nc2[nH]cc(CCc3ccc(C(=O)N[C@@H](CCC(=O)O)C(=O)O)cc3)c2c(=O)[nH]1 [Pemetrexed] (partner 0.2 µM)
Summary of the method: as §1

[4] = compound: O=C(NC1CCNCC1)c1n[nH]cc1NC(=O)c1c(Cl)cccc1Cl [AT-7519] + COc1cccc2cc(-c3nc([C@H]4CC[C@H](C(=O)O)CC4)n4ncnc(N)c34)[nH]c12 [OSI-027] (partner 0.5 µM)
Summary of the method: as §1

| Cell Line | relative viability ([1]; first compound 0.08 µM) | relative viability ([1]; first compound 0.253 µM) | relative viability ([1]; first compound 0.8 µM) | relative viability ([1]; first compound 2.53 µM) | relative viability ([1]; first compound 8 µM) | relative viability ([2]; first compound 0.08 µM) | relative viability ([2]; first compound 0.253 µM) | relative viability ([2]; first compound 0.8 µM) | relative viability ([2]; first compound 2.53 µM) | relative viability ([2]; first compound 8 µM) | relative viability ([3]; first compound 0.08 µM) | relative viability ([3]; first compound 0.253 µM) | relative viability ([3]; first compound 0.8 µM) | relative viability ([3]; first compound 2.53 µM) | relative viability ([3]; first compound 8 µM) | relative viability ([4]; first compound 0.01 µM) | relative viability ([4]; first compound 0.03162 µM) | relative viability ([4]; first compound 0.3162 µM) | relative viability ([4]; first compound 1 µM) |
| --- | --- | --- | --- | --- | --- | --- | --- | --- | --- | --- | --- | --- | --- | --- | --- | --- | --- | --- | --- |
| EKVX | 0.875 | 0.87 | 0.848 | 0.888 | 0.799 | 0.997 | 0.959 | 1 | 0.894 | 0.915 | 0.41 | 0.369 | 0.393 | 0.397 | 0.388 | 0.725 | 0.536 | 0.687 | 0.709 |
| EMC-BAC-2 | 1.25 | 1.05 | 1.2 | 1.24 | 1.13 | 0.777 | 0.751 | 0.704 | 0.806 | 0.757 | 0.417 | 0.433 | 0.433 | 0.458 | 0.421 | 0.363 | 0.343 | 0.358 | 0.476 |
| EPLC-272H | 0.264 | 0.385 | 0.388 | 0.283 | 0.383 | 1.14 | 0.883 | 0.977 | 0.978 | 0.964 | 0.327 | 0.364 | 0.358 | 0.374 | 0.379 | 0.283 | 0.296 | 0.264 | 0.206 |
| H3255 | 0.838 | 0.876 | 0.864 | 0.855 | 0.78 | 0.842 | 1.02 | 0.834 | 0.669 | 0.874 | 0.545 | 0.576 | 0.559 | 0.556 | 0.57 | 0.572 | 0.517 | 0.591 | 0.508 |
| HARA | 1.27 | 0.913 | 0.796 | 0.803 | 0.761 | 1.1 | 1.01 | 1.03 | 1.02 | 1.04 | 0.212 | 0.214 | 0.252 | 0.206 | 0.237 | 0.425 | 0.36 | 0.523 | 0.423 |
| HCC-15 | 0.345 | 0.383 | 0.304 | 0.428 | 0.368 | 0.957 | 0.851 | 0.806 | 0.824 | 0.77 | 0.221 | 0.229 | 0.213 | 0.235 | 0.24 | 0.673 | 0.632 | 0.54 | 0.34 |
| HCC-44 | – | 1.08 | 1.05 | 1.19 | 1.01 | 0.935 | 0.767 | 0.807 | 0.819 | 0.859 | 0.703 | 0.692 | 0.649 | 0.675 | 0.728 | 0.516 | 0.493 | 0.28 | 0.317 |
| HCC-827 | 0.859 | 0.576 | 0.592 | 0.693 | 0.683 | 0.97 | 0.886 | 0.971 | 0.911 | 0.998 | 0.269 | 0.21 | 0.296 | 0.224 | 0.246 | 0.842 | 0.72 | 0.705 | 0.539 |
| HOP-62 | 0.878 | 0.773 | 0.916 | 0.919 | 0.898 | 1.14 | 0.725 | 0.701 | 1.09 | 1.02 | 0.263 | 0.279 | 0.312 | 0.349 | 0.325 | 0.857 | 0.675 | 0.846 | 0.809 |
| LC-2-ad | 0.989 | 1.04 | 1.05 | 1.1 | 0.834 | 0.534 | 0.412 | 0.462 | 0.452 | 0.411 | 0.28 | 0.278 | 0.265 | 0.261 | 0.274 | 0.733 | 0.866 | 0.862 | 0.514 |
| LCLC-97TM1 | 0.963 | 0.678 | 0.714 | 0.805 | 0.801 | – | 0.35 | – | 0.424 | 0.325 | 0.173 | 0.18 | 0.157 | 0.156 | 0.161 | 0.566 | 0.616 | 0.422 | 0.21 |
| LCLC-103H | 1.09 | 0.902 | 1.09 | 0.96 | 0.957 | 1.16 | 1.02 | 0.978 | 1.07 | 1.06 | 0.505 | 0.459 | 0.493 | 0.439 | 0.453 | 0.455 | 0.479 | 0.46 | 0.456 |
| LK-2 | 0.156 | 0.292 | 0.181 | 0.231 | 0.179 | 0.275 | 0.223 | 0.244 | 0.218 | 0.162 | 0.312 | 0.224 | 0.212 | 0.269 | 0.283 | 0.182 | 0.217 | 0.19 | 0.189 |
| LOU-NH91 | 0.418 | 0.354 | 0.327 | 0.373 | 0.341 | 0.765 | 0.704 | 0.739 | 0.79 | 0.717 | 0.365 | 0.38 | 0.393 | 0.361 | 0.36 | 0.738 | 0.742 | 0.72 | 0.711 |
| LU99A | 0.234 | 0.35 | 0.216 | 0.228 | 0.27 | 0.626 | 0.605 | 0.521 | 0.57 | 0.574 | 0.161 | 0.401 | 0.183 | 0.181 | 0.19 | 0.315 | 0.248 | 0.223 | 0.299 |
| LXF-289 | 0.788 | 0.645 | 0.73 | 0.681 | 0.642 | 0.886 | 0.762 | 0.792 | 0.835 | 0.741 | 0.919 | 0.869 | 0.841 | 0.962 | 0.885 | 0.758 | 0.666 | 0.706 | 0.737 |
| NCI-H23 | 0.202 | 0.21 | – | 0.194 | 0.209 | 0.539 | 0.614 | 0.463 | 0.533 | 0.51 | 0.681 | 0.648 | 0.669 | 0.579 | 0.693 | 0.475 | 0.521 | 0.664 | 0.396 |
